Laboratory results as given in patent US20140329682A1, “METHOD OF CONTROLLING WEED IN A SUGAR CANE FIELD” (SUMITOMO CHEMICAL COMPANY, LIMITED, priority 2011, published 2014).

Legend:
Amaranthus retroflexus [1] = assay: Herbicidal activity, spray above weed before planting, metalaxyl-treated stem cutting (Example 13); format: in vivo; settings: sprayed above weed, 3 cm stem cutting treated with metalaxyl or metalaxyl-M planted one week after treatment, four weeks after treatment
Protocol: A soil is packed into a plastic pot, and seeds of Amaranthus retroflexus are seeded thereon. Thereafter, a pot is placed in a greenhouse, and the weed is grown.
(§3) The pot for a test is placed in a greenhouse.

Amaranthus retroflexus [2] = assay: Herbicidal activity, soil surface spray, metalaxyl-treated stem cutting (Example 12); format: in vivo; settings: 3 cm stem cutting treated with metalaxyl or metalaxyl-M, four weeks after treatment
Protocol: A soil is packed into a plastic pot. Seeds of Amaranthus retroflexus are seeded thereon.

sugar cane [3] = assay: Phytotoxicity on sugar cane, soil surface spray, metalaxyl-treated stem cutting (Example 12)
Excerpt: (§1) The “phytotoxicity” evaluated herein is the damage characteristic determined to be due to a treated compound, and is clearly discriminated from the damage characteristic caused by a harmful animal or plant disease.
A 30 cm to 40 cm stem cutting of sugar cane is placed on a wet soil, and germination is stimulated. The stem cutting from which a bud has grown to about 1 cm is selected, and the length of the stem cutting is adjusted to be 3 cm so that the stem cutting has one node. Metalaxyl or metalaxyl-M is adhered to the stem cutting. A soil is packed into a plastic pot. Seeds of Amaranthus retroflexus are seeded thereon. The stem cutting of sugar cane treated with metalaxyl or metalaxyl-M is planted in the soil packed into the pot at a depth of 2 cm. […] Thereafter, the pot for a test is placed in a greenhouse.

Amaranthus retroflexus [4] = assay: Herbicidal activity, spray above weed one week before planting (Example 5); format: in vivo; settings: sprayed above weed three weeks after seeding, 3 cm stem cutting planted one week after treatment, four weeks after treatment
Protocol: A soil is packed into a plastic pot, and seeds of Amaranthus retroflexus are seeded thereon. Thereafter, the pot is placed in a greenhouse, and the weed is grown.
A 30 cm to 40 cm stem cutting of sugar cane is placed on a wet soil, and germination is stimulated. The stem cutting from which a bud has been grown to about 1 cm is selected, and the length of the stem cutting is adjusted to be 3 cm so that the stem cutting has one node.
as §3

Amaranthus retroflexus [5] = assay: Herbicidal activity, soil surface spray, azole-fungicide-treated stem cutting (Example 10); format: in vivo; settings: 3 cm stem cutting treated with azaconazole, bitertanol or another listed azole-type fungicide, four weeks after treatment
Amaranthus retroflexus [6] = assay: Herbicidal activity, spray from upper side of pot, sugar cane at 4 to 5 leaves (Example 2); format: in vivo; settings: 125 g (active ingredient)/ha, four weeks after treatment, scale 0 to 100
Protocol: (§2) A sugar cane, a foliage of which had grown to about 4 to 5 leaves, was selected, and the length of the stem cutting was adjusted to be 8 cm, 15 cm or 25 cm. The 8 cm or 15 cm stem cutting had one node, and the 25 cm stem cutting had two nodes. A soil was packed into a 32 cm×25 cm×11 cm plastic pot, and seeds of Amaranthus retroflexus were seeded thereon. […] On the date when the stem cutting was planted, and after planting of the stem cutting, a water-diluted liquid of a flumioxazin water dispersible granule (water dispersible granule containing 51% flumioxazin, trade name: Valor SX, manufactured by Valent USA Corporation) (250 ppm) was uniformly sprayed with a sprayer from an upper side of the pot at an amount described in Table 2. Thereafter, the pot for a test was placed in a greenhouse. One week after treatment with flumioxazin, phytotoxicity on sugar cane was determined and, four weeks after treatment with flumioxazin, the herbicidal activity against Amaranthus retroflexus was determined.

sugar cane [7] = assay: Phytotoxicity on sugar cane, spray from upper side of pot, sugar cane at 4 to 5 leaves (Example 2); format: in vivo; settings: 125 g (active ingredient)/ha, one week after treatment, scale 0 to 100
Protocol: as §2

sugar cane [8] = assay: Phytotoxicity on sugar cane, soil surface spray, azole-fungicide-treated stem cutting (Example 10)
Excerpt: as §1
A 30 to 40 cm stem cutting of sugar cane is placed on a wet soil, and germination is stimulated. The stem cutting from which a bud has grown to about 1 cm is selected, and the length of the stem cutting is adjusted to be 3 cm so that the stem cutting has one node. Azaconazole, bitertanol, bromoconazole, cyproconazole, difenoconazole, diniconazole, epoxyconazole, fenbuconazole, fluquinconazole, flusilazole, flutriafol, hexaconazole, imibenconazole, ipconazole, metconazole, myclobutanil, penconazole, propiconazole, prothioconazole, simeconazole, tebuconazole, tetraconazole, triadimenol, triticonazole, fenarimol, nuarimol, pyrifenox, imazalil, oxpoconazole fumarate, pefurazoate, procloraz or triflumizole is adhered to the stem cutting. A soil is packed into a plastic pot, and seeds of Amaranthus retroflexus are seeded thereon. The stem cutting of sugar cane treated with azaconazole, bitertanol, bromoconazole, cyproconazole, difenoconazole, diniconazole, epoxyconazole, fenbuconazole, fluquinconazole, flusilazole, flutriafol, hexaconazole, imibenconazole, ipconazole, metconazole, myclobutanil, penconazole, propiconazole, prothioconazole, simeconazole, tebuconazole, tetraconazole, triadimenol, triticonazole, fenarimol, nuarimol, pyrifenox, imazalil, oxpoconazole fumarate, pefurazoate, procloraz or triflumizole is planted in the soil packed into the pot at a depth of 2 cm. […] Thereafter, the pot for a test is placed in a greenhouse.

sugar cane [9] = assay: Phytotoxicity on sugar cane, spray from upper side of pot, sugar cane at 4 to 5 leaves (Example 3); format: in vivo; settings: 70 g (active ingredient)/ha, one week after treatment, scale 0 to 100
Protocol: as §2, with “8” for “8 cm, 15”, “8” for “8 cm or 15”, “saflufenacil (140” for “a flumioxazin water dispersible granule (water dispersible granule containing 51% flumioxazin, trade name: Valor SX, manufactured by Valent USA Corporation) (250”, “3. The water-diluted liquid of saflufenacil was prepared by dissolving a predetermined amount of saflufenacil in acetone containing 2% (w/v) Tween 20, and diluting this solution with water so that the acetone concentration became 10% by volume.” for “2.”, “saflufenacil,” for “flumioxazin,”

Amaranthus retroflexus [10] = assay: Herbicidal activity, spray from upper side of pot, sugar cane at 4 to 5 leaves (Example 3); format: in vivo; settings: 70 g (active ingredient)/ha, four weeks after treatment, scale 0 to 100
Protocol: as §2, with “8” for “8 cm, 15”, “8” for “8 cm or 15”, “saflufenacil (140” for “a flumioxazin water dispersible granule (water dispersible granule containing 51% flumioxazin, trade name: Valor SX, manufactured by Valent USA Corporation) (250”, “3. The water-diluted liquid of saflufenacil was prepared by dissolving a predetermined amount of saflufenacil in acetone containing 2% (w/v) Tween 20, and diluting this solution with water so that the acetone concentration became 10% by volume.” for “2.”, “saflufenacil,” for “flumioxazin,”

sugar cane [11] = assay: Phytotoxicity on sugar cane, soil surface spray after planting (Example 4)
Excerpt: as §1
A 30 cm to 40 cm stem cutting of sugar cane is placed on a wet soil, and germination is stimulated. The stem cutting from which a bud has grown to about 1 cm is selected, and the length of the stem cutting is adjusted to be 3 cm so that the stem cutting has one node. A soil is packed into a plastic pot, and seeds of Amaranthus retroflexus are seeded thereon. The stem cutting of sugar cane is planted in the soil packed in the pot at a depth of 2 cm. […] Thereafter, the pot for a test is placed in a greenhouse.

Amaranthus retroflexus [12] = assay: Herbicidal activity, soil surface spray after planting (Example 4); format: in vivo; settings: 3 cm stem cutting, one node, soil surface spray on date of planting, four weeks after treatment
[13] = Example 12, 3 cm stem cutting treated with metalaxyl or metalaxyl-M, soil surface spray, four weeks after treatment
[14] = Example 10, 3 cm stem cutting treated with azaconazole, bitertanol or another listed azole-type fungicide, soil surface spray, four weeks after treatment
[15] = Example 4, 3 cm stem cutting, one node, soil surface spray on date of planting, four weeks after treatment

SMILES	herbicidal activity against Amaranthus retroflexus (Amaranthus retroflexus [1])	herbicidal activity against Amaranthus retroflexus (Amaranthus retroflexus [2])	phytotoxicity (sugar cane [3]; [13])	herbicidal activity against Amaranthus retroflexus (Amaranthus retroflexus [4])	herbicidal activity against Amaranthus retroflexus (Amaranthus retroflexus [5])	phytotoxicity (sugar cane [8]; [14])	phytotoxicity (sugar cane [11]; [15])	herbicidal activity against Amaranthus retroflexus (Amaranthus retroflexus [12])	phytotoxicity (sugar cane [3]; in vivo)	phytotoxicity (sugar cane [11]; in vivo)	phytotoxicity (sugar cane [8]; in vivo)	further results
C#CCN1C(=O)COc2cc(F)c(N3C(=O)C4=C(CCCC4)C3=O)cc21 [Flumioxazin, flumioxazin]	the controlling effect on a weed can be confirmed	the controlling effect on a weed can be confirmed	significant phytotoxicity on sugar cane is not observed	the controlling effect on a weed can be confirmed	the control effect on a weed can be confirmed	significant phytotoxicity on sugar cane is not observed	–	–	–	–	–	Herbicidal activity (Amaranthus retroflexus [6]; stem cutting 8 cm): 100; Herbicidal activity (Amaranthus retroflexus [6]; stem cutting 15 cm): 100; Herbicidal activity (Amaranthus retroflexus [6]; stem cutting 25 cm): 100; Phytotoxicity on sugar cane (sugar cane [7]; stem cutting 8 cm (one node)): 10; Phytotoxicity on sugar cane (sugar cane [7]; stem cutting 15 cm (one node)): 10; Phytotoxicity on sugar cane (sugar cane [7]; stem cutting 25 cm (two nodes)): 30
CC(C)N(C)S(=O)(=O)NC(=O)c1cc(-n2c(=O)cc(C(F)(F)F)n(C)c2=O)c(F)cc1Cl [Saflufenacil, saflufenacil]	the controlling effect on a weed can be confirmed	the controlling effect on a weed can be confirmed	significant phytotoxicity on sugar cane is not observed	the controlling effect on a weed can be confirmed	the control effect on a weed can be confirmed	significant phytotoxicity on sugar cane is not observed	significant phytotoxicity on sugar cane is not observed	the controlling effect on a weed can be confirmed	–	–	–	Phytotoxicity on sugar cane (sugar cane [9]; stem cutting 8 cm (one node)): 0; Phytotoxicity on sugar cane (sugar cane [9]; stem cutting 25 cm (two nodes)): 15; Herbicidal activity (Amaranthus retroflexus [10]; stem cutting 8 cm): 100; Herbicidal activity (Amaranthus retroflexus [10]; stem cutting 25 cm): 100
C#CCN1C(=O)COc2cc(F)c(-n3c(=O)n(C)c(=S)n(C)c3=O)cc21 [compound of the formula (I)]	the controlling effect on a weed can be confirmed	the controlling effect on a weed can be confirmed	–	the controlling effect on a weed can be confirmed	the control effect on a weed can be confirmed	–	–	the controlling effect on a weed can be confirmed	significant phytotoxicity on sugar cane is not observed	significant phytotoxicity on sugar cane is not observed	significant phytotoxicity on sugar cane is not observed	–
CC(C)Oc1cc(-n2nc(C(C)(C)C)oc2=O)c(Cl)cc1Cl [oxadiazon]	the controlling effect on a weed can be confirmed	the controlling effect on a weed can be confirmed	–	the controlling effect on a weed can be confirmed	the control effect on a weed can be confirmed	–	–	the controlling effect on a weed can be confirmed	significant phytotoxicity on sugar cane is not observed	significant phytotoxicity on sugar cane is not observed	significant phytotoxicity on sugar cane is not observed	–
CCOc1cc(Oc2ccc(C(F)(F)F)cc2Cl)ccc1[N+](=O)[O-] [oxyfluorfen]	the controlling effect on a weed can be confirmed	the controlling effect on a weed can be confirmed	significant phytotoxicity on sugar cane is not observed	the controlling effect on a weed can be confirmed	the control effect on a weed can be confirmed	significant phytotoxicity on sugar cane is not observed	significant phytotoxicity on sugar cane is not observed	the controlling effect on a weed can be confirmed	–	–	–	–
Cc1nn(-c2cc(NS(C)(=O)=O)c(Cl)cc2Cl)c(=O)n1C(F)F [sulfentrazone]	the controlling effect on a weed can be confirmed	the controlling effect on a weed can be confirmed	–	the controlling effect on a weed can be confirmed	the control effect on a weed can be confirmed	–	–	the controlling effect on a weed can be confirmed	significant phytotoxicity on sugar cane is not observed	significant phytotoxicity on sugar cane is not observed	significant phytotoxicity on sugar cane is not observed	–
